Square brackets hold non-standard residues; d marks the D form. Peptide text beside a SMILES is read from it.
Legend:
[1] = tested on: E. faecium BM 4147-1; details: cation-adjusted Mueller-Hinton medium, twofold serial dilution (CLSI), 5 × 10^5 CFU per mL, overnight, 37°C
Procedure: (§1) The minimal inhibitory concentration (MIC) was determined in a cation-adjusted Mueller-Hinton medium that contains casein, beef extract and starch by using a twofold serial dilution method according to the standards and guidelines of the Clinical and Laboratory Standards Institute (CLSI). In brief, a twofold serial dilution of the test compound was prepared in microtiter plates and seeded using a final inoculum of bacteria of 5 × 10^5 colony-forming units per mL. […] The strain panel included representative species of nosocomial pathogens, which are known as “ESKAPE” bacteria. Specifically, the following strains were used: Enterococcus faecium BM 4147–1, Staphylococcus aureus ATCC 29213, Klebsiella pneumoniae ATCC 12657, Acinetobacter baumannii 09987, Pseudomonas aeruginosa ATCC 27853 and Enterobacter aerogenes ATCC 13048. Bacillus subtilis 168 and Escherichia coli ATCC 25922 were used as further reference strains. The ATCC strains were provided by the American Type Culture Collection. A. baumannii 09987 was obtained from the University of Bonn, Germany.

[2] = tested on: P. aeruginosa ATCC 27853; details: cation-adjusted Mueller-Hinton medium, twofold serial dilution (CLSI), 5 × 10^5 CFU per mL, overnight, 37°C
Procedure: as §1

[3] = tested on: A. baumannii 09987; details: cation-adjusted Mueller-Hinton medium, twofold serial dilution (CLSI), 5 × 10^5 CFU per mL, overnight, 37°C
Procedure: as §1

[4] = tested on: B. subtilis 168; details: cation-adjusted Mueller-Hinton medium, twofold serial dilution (CLSI), 5 × 10^5 CFU per mL, overnight, 37°C
Procedure: as §1

[5] = tested on: K. pneumonia ATCC 12657; details: cation-adjusted Mueller-Hinton medium, twofold serial dilution (CLSI), 5 × 10^5 CFU per mL, overnight, 37°C
Procedure: as §1

[6] = tested on: strain panel of "ESKAPE" bacteria, Bacillus subtilis 168 and Escherichia coli ATCC 25922; details: broth microdilution, up to the highest concentration tested (64 µg ml^−1)
Procedure: as §1

[7] = tested on: E. aerogenes ATCC 13048; details: cation-adjusted Mueller-Hinton medium, twofold serial dilution (CLSI), 5 × 10^5 CFU per mL, overnight, 37°C
Procedure: as §1

[8] = tested on: E. coli ATCC 25922; details: cation-adjusted Mueller-Hinton medium, twofold serial dilution (CLSI), 5 × 10^5 CFU per mL, overnight, 37°C
Procedure: as §1

[9] = tested on: S. aureus ATCC 2921; details: cation-adjusted Mueller-Hinton medium, twofold serial dilution (CLSI), 5 × 10^5 CFU per mL, overnight, 37°C
Procedure: The minimal inhibitory concentration (MIC) was determined in a cation-adjusted Mueller-Hinton medium that contains casein, beef extract and starch by using a twofold serial dilution method according to the standards and guidelines of the Clinical and Laboratory Standards Institute (CLSI) [10]. In brief, a twofold serial dilution of the test compound was prepared in microtiter plates and seeded using a final inoculum of bacteria of 5 × 10^5 colony-forming units per mL.

[10] = tested on: HeLa cell line; details: HeLa cell line at 64 µg ml^−1; resazurin assay
Procedure: The cytotoxicity test against the HeLa human cervical carcinoma cell line was performed in RPMI cell culture medium supplemented with 10% fetal bovine serum using the 7-hydroxy-3H-phenoxazin-3-one-10-oxide (resazurin) assay. A twofold serial dilution of the test compounds was prepared in duplicates in a microtiter plate and seeded with trypsinized HeLa cells to a final cell concentration of 1 × 10^4 cells per well. After 24 h incubation at 37°C, 5 % CO2, 95% relative humidity, resazurin was added at a final concentration of 200 µM, and cells were again incubated overnight. Cell viability was assessed by determining the reduction of resazurin to the fluorescent resorufin. Fluorescence was measured in a TECAN M200 reader at an excitation wavelength of 560 nm and an emission wavelength of 600 nm in relation to the untreated control.

[11] = target: tyrosinase (Agaricus bisporus, UniProt C7FF04); assay: Tyrosinase inhibition assay (kit MAK257); assay type: biochemical; details: comparison of IC50 values with arbutin and kojic acid
Sequence of tyrosinase (C7FF04 whole entry): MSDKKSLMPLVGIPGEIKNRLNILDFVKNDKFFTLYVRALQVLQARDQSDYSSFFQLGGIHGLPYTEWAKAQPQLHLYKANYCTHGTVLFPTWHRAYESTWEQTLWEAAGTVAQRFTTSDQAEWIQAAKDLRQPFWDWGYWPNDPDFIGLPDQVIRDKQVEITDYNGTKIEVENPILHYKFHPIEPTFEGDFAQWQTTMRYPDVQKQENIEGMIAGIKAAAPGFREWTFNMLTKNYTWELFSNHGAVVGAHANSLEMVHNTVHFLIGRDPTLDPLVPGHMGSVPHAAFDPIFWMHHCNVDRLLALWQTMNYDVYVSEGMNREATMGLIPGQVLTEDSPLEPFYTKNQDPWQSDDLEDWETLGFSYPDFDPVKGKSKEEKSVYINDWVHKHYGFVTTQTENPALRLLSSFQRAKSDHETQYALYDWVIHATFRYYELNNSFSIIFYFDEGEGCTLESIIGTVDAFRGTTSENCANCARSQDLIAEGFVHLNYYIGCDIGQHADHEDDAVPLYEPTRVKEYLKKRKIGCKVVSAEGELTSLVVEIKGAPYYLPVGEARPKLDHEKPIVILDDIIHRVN
Procedure: In brief, 20 µL massiliamide (1) with various concentrations (0.05–5 µM) was added into 50 µL tyrosinase enzyme solutions that contained 48 µL MAK257A buffer and 2 µL of tyrosinase. The mixture was then incubated for 10 min at 25°C, followed by the addition of 30 µL substrate solution, containing 23 µL MAK257A buffer, 2 µL tyrosinase substrate, and 5 µL tyrosinase enhancer. The final reaction mixture was then homogenized by shaking and immediately monitored at 510 nm using a Tecan Infinite 200 Pro microplate reader, applying the kinetic mode for 30-60 min. […] Each measurement was conducted in three independent replications.

SMILES: CC(C)[C@H]1NC(=O)[C@@H]2CCCN2C(=O)[C@@H](Cc2ccc(O)cc2)NC(=O)[C@@H]2CCCN2C1=O [Massiliamide (1)] (cyclo(P[dY]P[dV]))
- MIC [1]: > 64 µg/mL
- MIC [2]: > 64 µg/mL
- MIC [3]: > 64 µg/mL
- MIC [4]: > 64 µg/mL
- MIC [5]: > 64 µg/mL
- Antimicrobial activity (in words) [6]: inactive up to the highest concentration tested
- MIC [7]: > 64 µg/mL
- MIC [8]: > 64 µg/mL
- MIC [9]: > 64 µg/mL
- Cytotoxicity (in words) [10]: no cytotoxicity
- Tyrosinase inhibition compared with positive controls (in words) [11]: surpassed readily the activities of the positive controls arbutin and kojic acid
